Test results: patent publication US7232837B2, “Stereoisomers with high affinity for adrenergic receptors” (McNeil-PPC, Inc., priority 1999, dated 2007)

Assays:
[1] = system: New Zealand white rabbits; assay: Intraocular pressure (IOP) after topical application to the rabbit eye; format: in vivo; details: mean ± S.E.
Description: These diastereomers were administered topically as either 1% or 2% solutions in buffered saline. Pupillary diameter and IOP were measured in all animals over a six hour time period during the day to minimize diurnal variations in IOP and pupil diameter.
The experiments were performed on adult male New Zealand white rabbits weighing 3.0–6.0 kg. All rabbits were caged individually and maintained on a 12 hr/12 hr light/dark schedule with free access to food and water. All animal procedures were in conformity with the ARVO Resolution on the Use and Care of Animals in Research. All treated rabbits had served as controls by having received a saline treatment on a different day.
Only one eye received drug treatment. The contralateral eye served as a control. Saline (or PBS) and drug treated rabbits were treated and observed simultaneously. A single dose was given at time zero and IOP and pupil diameter measured at −1.0, −0.5, 0.5, 1, 3 and 5 hrs post-treatment.
IOP measurements were recorded with an Alcon Applanation Pneumotonograph (Surgical Products Division, Alcon Laboratories, Inc., Ft. Worth, Tex.) in rabbits placed in Lucite restraining cages. Initial topical application of a two drop 0.5% proparacaine HCl (Ophthetic®, Allergan Pharmaceuticals, Inc.) was performed on each rabbit.
Mean and Standard Error values were used to construct time-response and dose-response curves for the treated and contralateral eye of research rabbits. The data were analyzed statistically by an analysis of variance and a Bonferoni's test for significance. P<0.05 was the accepted level of significance.

[2] = system: Swiss-Webster mice; assay: H1 receptor antagonist (triprolidine) interaction study, locomotor activity in mice; details: mice pretreated with triprolidine 20 min before the test compound
Description: H1 receptor antagonist interaction studies. […] The mice were immediately placed in the activity testing chamber for a 2-h session. Doses of the test compound were selected from the ascending or descending time of the dose-effect curve determined from the compound-alone studies. Eight mice were tested for each triprolidine/test compound combination.
(§1) Statistical analysis. Time course data for each compound were considered in 2-way analyses of variance with dose as a between-group and time as a within-group factor. The dose-effect data were considered in 1-way analyses of variance, and planned individual comparisons were conduced between each dose and the saline control group. Interaction studies were considered in 2-way analyses of variance, with Pretreatment and Test dose as the factors.

[3] = system: Dog; assay: Dosage which raised mean arterial pressure 10%, dog; format: in vivo
[4] = system: Swiss-Webster mice; assay: Locomotor stimulant and depressant effects in mice; details: i.p.
Description: Male Swiss-Webster mice (HSD ND4, Harlan Sprague Dawley, Houston, Tex.) aged 2–3 months were used in these studies. Each dose group consisted of 8 mice. The mice were housed 2 to 4 per cage in 30.4×22.9×15.2 cm clear polycarbonate cages with food and water available ad libitum for at least one week prior to locomotor activity testing. The colony was maintained at 23±1° C., on a normal light-dark cycle beginning at 0700 hr. All testing took place during the light portion of the light-dark cycle.
Horizontal (forward movement) locomotor activity was measured using a standardized, optical activity monitoring system [Model KXYZCM (16), Omnitech Electronics, Columbus, Ohio]. Activity was monitored in forty 40.5×40.5×30.5 cm clear acrylic chambers that where housed in sets of two within larger sound-attenuating chambers. A panel of 16 infrared beams and corresponding photodetectors were spaced 2 cm apart along the sides and 2.4 cm above the floor of each activity chamber. A 7.5-W incandescent light above each chamber provided dim illumination via a rheostat set to 20% of full scale. Fans provided an 80-dB ambient noise level within the chamber.
Triprolidine HCl was obtained from Research Biochemicals International, (Natick, Mass.).
Locomotor stimulant effects. […] (+)-Amphetamine was used as a positive control. The total horizontal distance traversed (cm) was recorded at 10 minute intervals for a 2-hour session. Separate groups of 8 mice were assigned to each dose or saline group, and dose-effect testing continued for each compound until maximal stimulant or depressant effects could be estimated. A separate control group was tested along with each compound.
Using TableCurve 2D v2.03 (Jandel Scientific), the mean average total distance traversed (cm/10 min) for that period was fit to a 3-parameter logistic peak function of log10 dose (with the constant set to the mean of the saline group), and the maximum effect estimated from the resulting curve. The […] (dose producing ½ maximal stimulant activity) was estimated from a linear regression against log10 dose of the ascending portion of the dose-effect curve. The stimulant efficacy was the peak effect of the compound (cm/10 min) as estimated from the logistic peak function, minus the mean control distance traveled (cm/10 min), and was expressed for each stimulant compound as a ratio to the stimulant efficacy determined for (+)-amphetamine.
The mean average total distance traversed (cm/10 min) for that period were fit to a linear function of log10 dose of the descending portion of the dose-effect curve. […] Efficacy was the ratio of maximal depressant effect to maximum possible depression for each compound (mean average total distance of the control group minus the lowest mean total distance, expressed as a ratio to the control group total distance).
as §1

[5] = system: Rat; assay: Dosage which raised mean arterial pressure 10%, rat; format: in vivo

For `CNC[C@H](O)c1cccc(O)c1` [(−)-Phenylephrine, (−)-phenylephrine], the IOP ([1]; 1% topical, drug treated eye (T), 0.5 hr) was 24 ± 0.6 mmHg, the IOP ([1]; 1% topical, drug treated eye (T), 1 hr) was 24 ± 1.0 mmHg and the IOP ([1]; 1% topical, drug treated eye (T), 3 hr) was 23 ± 1.5 mmHg. It also gave an IOP ([1]; 1% topical, drug treated eye (T), 5 hr) of 21 ± 1.9 mmHg, an IOP ([1]; 1% topical, drug treated eye (T), −0.5 hr (pre-treatment)) of 16 ± 1.5 mmHg and an IOP ([1]; 1% topical, drug treated eye (T), −1 hr (pre-treatment)) of 20 ± 1.6 mmHg. The IOP ([1]; 1% topical, untreated contralateral eye (U), 0.5 hr) was 18 ± 1.6 mmHg, the IOP ([1]; 1% topical, untreated contralateral eye (U), 1 hr) was 19 ± 1.3 mmHg and the IOP ([1]; 1% topical, untreated contralateral eye (U), 3 hr) was 20 ± 1.9 mmHg. For the same compound, the IOP ([1]; 1% topical, untreated contralateral eye (U), 5 hr) was 19 ± 1.7 mmHg, the IOP ([1]; 1% topical, untreated contralateral eye (U), −0.5 hr (pre-treatment)) was 15 ± 2.1 mmHg and the IOP ([1]; 1% topical, untreated contralateral eye (U), −1 hr (pre-treatment)) was 16 ± 1.0 mmHg. For the same compound, the IOP ([1]; 2% topical, drug treated eye (T), 0.5 hr) was 12 ± 0.8 mmHg, the IOP ([1]; 2% topical, drug treated eye (T), 1 hr) was 14 ± 2.0 mmHg and the IOP ([1]; 2% topical, drug treated eye (T), 3 hr) was 16 ± 0.8 mmHg. It also gave an IOP ([1]; 2% topical, drug treated eye (T), 5 hr) of 14 ± 1.3 mmHg, an IOP ([1]; 2% topical, drug treated eye (T), −0.5 hr (pre-treatment)) of 15 ± 1.5 mmHg and an IOP ([1]; 2% topical, drug treated eye (T), −1 hr (pre-treatment)) of 18 ± 1.6 mmHg. It also gave an IOP ([1]; 2% topical, untreated contralateral eye (U), 0.5 hr) of 20 ± 2.0 mmHg, an IOP ([1]; 2% topical, untreated contralateral eye (U), 1 hr) of 20 ± 2.4 mmHg and an IOP ([1]; 2% topical, untreated contralateral eye (U), 3 hr) of 14 ± 1.7 mmHg. It also gave an IOP ([1]; 2% topical, untreated contralateral eye (U), 5 hr) of 14 ± 2.0 mmHg, an IOP ([1]; 2% topical, untreated contralateral eye (U), −0.5 hr (pre-treatment)) of 17 ± 1.9 mmHg and an IOP ([1]; 2% topical, untreated contralateral eye (U), −1 hr (pre-treatment)) of 17 ± 1.9 mmHg. The “effect of triprolidine pretreatment on stimulant or depressant effects” value [2] was “failed to show significant modification of stimulant or depressant effects”, the “Dosage of Enantiomer which raised mean arterial pressure 10%, Dog” value [3] was 10 µg/kg and the “Depression Time: 30-min period following injection in which the maximal depression occurred” value [4] was 0 to 30 min. For the same compound, the “Stimulation Time: 30-min period following injection in which the maximal stimulant effect occurred” value [4] was 60 to 90 min, the “locomotor depressant effects, time course (result in words)” value [4] was “dose-dependent locomotor depression within 10 to 20 minutes following injection” and the “Depression Potency: dose resulting in ½ the maximal depressant effect (ID50)” value ([4]; — denotes absence of significant effect) was 2.3 mg/kg. The “Dosage of Enantiomer which raised mean arterial pressure 10%, Rat” value [5] was 3 to 5 µg.
